From PMC6718442, “11β-Hydroxysteroid dehydrogenases control access of 7β,27-dihydroxycholesterol to retinoid-related orphan receptor γ” (Journal of Lipid Research, 2019)
Where two headings read alike, the source gives them in different places.

Key:
human 11β-HSD1 [1] = molecular target: T1, human 11β-HSD1 (Homo sapiens, UniProt P28845); settings: substrate of 11β-HSD1, cited from earlier work
T1 construct: expressed in transfected cells

RORγ = molecular target: T2, RORγ (Homo sapiens, UniProt P51449); test: Glucose-6-phosphatase luciferase reporter in SW-620 cells overexpressing RORγ (preliminary); assay type: cell-based; design: expressed in transfected cells; host or cells: SW-620; settings: inhibition of 11β-HSD2 by GA in SW-620 cells, trend
T2 sequence (P51449 1-518): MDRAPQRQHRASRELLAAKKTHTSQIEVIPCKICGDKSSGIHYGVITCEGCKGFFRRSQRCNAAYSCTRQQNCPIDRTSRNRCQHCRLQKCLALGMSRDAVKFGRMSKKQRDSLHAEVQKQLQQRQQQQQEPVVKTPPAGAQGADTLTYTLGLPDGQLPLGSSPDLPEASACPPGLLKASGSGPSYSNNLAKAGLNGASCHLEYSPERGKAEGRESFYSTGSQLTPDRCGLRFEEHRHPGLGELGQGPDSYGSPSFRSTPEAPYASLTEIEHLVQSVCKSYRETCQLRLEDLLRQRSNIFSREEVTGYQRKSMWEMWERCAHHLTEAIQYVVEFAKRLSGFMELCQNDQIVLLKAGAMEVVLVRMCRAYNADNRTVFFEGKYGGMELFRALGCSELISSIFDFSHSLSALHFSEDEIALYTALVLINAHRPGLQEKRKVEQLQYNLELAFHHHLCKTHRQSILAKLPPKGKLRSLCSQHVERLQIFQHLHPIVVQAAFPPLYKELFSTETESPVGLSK

11β-HSD2 [2] = molecular target: T3, 11β-HSD2 (Homo sapiens, UniProt P80365); design: method as in PMID 30902677; settings: intact cells, oxidation by 11β-HSD2, ref [46], cited from earlier work
T3 construct: expressed in transfected cells
T3 sequence (P80365 1-405): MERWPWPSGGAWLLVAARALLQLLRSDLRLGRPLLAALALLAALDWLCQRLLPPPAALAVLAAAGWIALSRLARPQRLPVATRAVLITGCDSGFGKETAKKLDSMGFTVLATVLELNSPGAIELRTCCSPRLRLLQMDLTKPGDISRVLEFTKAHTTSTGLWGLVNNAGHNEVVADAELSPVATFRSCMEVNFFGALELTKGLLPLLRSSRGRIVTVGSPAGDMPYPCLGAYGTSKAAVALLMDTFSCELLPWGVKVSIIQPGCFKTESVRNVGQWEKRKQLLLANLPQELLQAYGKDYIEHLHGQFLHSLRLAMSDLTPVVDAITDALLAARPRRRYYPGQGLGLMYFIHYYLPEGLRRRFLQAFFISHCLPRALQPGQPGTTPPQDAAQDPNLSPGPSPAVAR

11β-HSD2 [3] = molecular target: T3, 11β-HSD2; settings: substrate of 11β-HSD2, ref [34], cited from earlier work
human 11β-HSD1 [4] = molecular target: T1, human 11β-HSD1; design: method as in PMID 30902677; settings: intact cells, oxoreduction by 11β-HSD1, ref [46], cited from earlier work

T1 sequence (P28845 whole entry): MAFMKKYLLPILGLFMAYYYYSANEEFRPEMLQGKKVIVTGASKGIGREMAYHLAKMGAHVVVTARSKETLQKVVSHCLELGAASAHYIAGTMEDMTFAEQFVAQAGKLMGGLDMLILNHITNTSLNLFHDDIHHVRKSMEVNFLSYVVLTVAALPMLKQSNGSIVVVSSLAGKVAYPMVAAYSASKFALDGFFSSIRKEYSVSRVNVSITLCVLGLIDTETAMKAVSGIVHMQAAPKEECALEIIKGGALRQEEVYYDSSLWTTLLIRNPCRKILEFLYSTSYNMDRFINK

Compound: CC(C)CCC[C@@H](C)[C@H]1CC[C@H]2[C@@H]3C(=O)C=C4C[C@@H](O)CC[C@]4(C)[C@H]3CC[C@]12C [7kC, 7-ketocholesterol]
- KMapp (human 11β-HSD1 [1]; ref [19]): ~500 nM

Compound: C[C@H](CCC(=O)O)[C@H]1CC[C@H]2[C@@H]3C(=O)C[C@@H]4C[C@H](O)CC[C@]4(C)[C@H]3CC[C@]12C [7oxoLCA, 7-oxolithocholic acid]
- KMapp (human 11β-HSD1 [1]; ref [49]): ~1000 nM

Compound: C[C@]12CC(=O)[C@H]3[C@@H](CCC4=CC(=O)CC[C@@]43C)[C@@H]1CC[C@@H]2C(=O)CO [11-DHC, 11-dehydrocorticosterone]
- KMapp (human 11β-HSD1 [1]; ref [19], [34]): 250 to 500 nM

Compound: CC1(C)[C@@H](O)CC[C@]2(C)[C@H]3C(=O)C=C4[C@@H]5C[C@@](C)(C(=O)O)CC[C@]5(C)CC[C@@]4(C)[C@]3(C)CC[C@@H]12 [GA, glycyrrhetinic acid]
- Increase of RORγ activity compared with cells treated with 7β27OHC only (RORγ): approximately 10%

Compound: C[C@]12CCC(=O)C=C1CC[C@@H]1[C@@H]2[C@@H](O)C[C@@]2(C)[C@H]1CC[C@]2(O)C(=O)CO [cortisol]
- Vapp cell intact (11β-HSD2 [2]): 1.01 ± 0.35 nmol·h^−1·mg total protein^−1
- Vapp cell intact (11β-HSD2 [2]; listed as Cortisol): 1.01 ± 0.35 ([46]) nmol·h^−1·mg total protein^−1
- KMapp (11β-HSD2 [3]): ~200 nM
- KMapp (11β-HSD2 [3]; listed as Cortisol): 200 ([34]) nM

Compound: C[C@]12CCC(=O)C=C1CC[C@@H]1[C@@H]2C(=O)C[C@@]2(C)[C@H]1CC[C@]2(O)C(=O)CO [cortisone, reference compound]
- KMapp (human 11β-HSD1 [1]; ref [19], [34]): 250 to 500 nM
- KMapp (human 11β-HSD1 [1]; ref [19], [34], listed as Cortisone): 250–500 ([19], [34]) nM
- Vapp cell intact (human 11β-HSD1 [4]): 1.59 ± 0.25 nmol·h^−1·mg total protein^−1
- Vapp cell intact (human 11β-HSD1 [4]; listed as Cortisone): 1.59 ± 0.25 ([46]) nmol·h^−1·mg total protein^−1
